The source of these data is patent US10689378B2, “Triazolopyridine compounds and uses thereof” (Novartis AG, priority 2016, dated 2020).

The test system of assay [1] is H3K27 methylation in G401 cell. In words: ELISA (H3K27 methylation) assay in G401 cells. The assay is classed as cell-based, human. The note with it: Homo sapiens, G-401, read-out: (c) IC50, ELISA Qualified. The procedure:
Compounds of the present invention were assessed for their ability to inhibit PRC2 activity in a pentameric complex of EZH2, SUZ12, EED, Rbap48 and AEBP in biochemical assays. The ability of compounds of the present invention to inhibit cellular activity of PRC2 was assessed by analysing histone H3 lysine 27 methylation in human cell lines. The ability of compounds of the present invention to inhibit cancers was derived from their ability to modulate activity in human cancer cell lines bearing specific dependence to PRC2 activity to maintain cancerous growth.
ELISA (H3K27 Methylation) Assay
Representative compounds of the present invention were serially and separately diluted 3-fold in DMSO to obtain a total of eight or twelve concentrations. Then the compounds were added to G401 cell cultured in 384-well plate at 1:500 dilution to obtain the highest concentration of 20 μM. The cells were further cultured for 48 h before ELISA procedure.
Histone extraction: Cells, in 384-well plate, were washed with PBS (10×PBS buffer (80 g NaCl (Sigma, S3014), 2 g KCl (Sigma, 60128), 14.4 g Na2HPO4 (Sigma, S5136), 2.4 g KH2PO4 (Sigma, P9791) to 1 L water, pH to 7.4) and lysed with the addition of lysis buffer (0.4N HCl; 45 μL per well). The plate was gently agitated at 4° C. for 30 min. The cell lysate was neutralized with neutralization buffer (0.5 M sodium phosphate dibasic, pH 12.5, 1 mM DTT; 36 μL per well). The plate was agitated to ensure the lysates were well mixed prior to the ELISA protocol.
ELISA protocol: Cell lysates were transferred to the wells of a 384-well plate and the final volume was adjusted to 50 μL per well with PBS. The plate was sealed, centrifuged at 2,000 rpm for 2 min and incubated at 4° C. for about 16 h. The plate was washed with TBST buffer (1×TBS (10×TBS: 24.2 g Tris (Sigma, T6066), 80 g NaCl (Sigma, S3014) to 1 L of water and adjust pH to 7.6 with HCl) with 0.1% Tween-20). Blocking buffer (TBST, 5% BSA; 50 μL per well) was added and the plate was incubated for 1 h at rt. The blocking buffer was removed and primary antibody was added (30 μL per well). The following dilutions were performed with blocking buffer: for anti-H3K27me3 antibody (Cell Signaling Technology, #9733), dilution was 1:1000; for anti-H3K27me2 antibody (Cell Signaling Technology, #9288), dilution was 1:100; for anti-H3 antibody (Abcam, Cat #24834), dilution was 1:1000. The primary antibody was incubated in the plate at rt for 1 h. The wells were washed with TBST and incubated with secondary antibody for 1 h at rt. For secondary antibodies, the following dilutions were carried out with blocking buffer: anti-rabbit antibody (Jackson ImmunoResearch, #111-035-003), dilution was 1:2000; and anti-mouse antibody (Cell signaling technology, #7076), dilution was 1:1000. After 1 h of incubation at rt, the wells were washed with TBST. ECL substrate (Pierce, #34080) was added at 30 μL per well and the plates were centrifuged at 2,000 rpm for 2 min. The signal was read using a PerkinElmer Envision Reader. The H3K27 methylation readouts were normalized using H3 signal and then percentage inhibition was calculated against the samples treated with DMSO. The data were then fit to a dose response curve using the program Helios to get the IC50 values of the test compound.

For a further assay, the target named is T1, EED (1-441)-His protein (Homo sapiens, UniProt O75530).
T1 construct: 30 nM EED (1-441)-His protein
Description: EED-H3K27Me3 peptide competition binding assay by AlphaScreen. The note with it: read-out: (a) IC50, EED Alphascreen binding Qualified. On the procedure:
EED-H3K27Me3 Peptide Competition Binding Assay by AlphaScreen (α-Screen)
To assess the compounds' potency in the EED-H3K27Me3 competition binding assay, compounds were serially diluted 3-fold in DMSO to obtain a total of twelve concentrations. Then compounds at each concentration (75 nL of each) were transferred by Mosquito into a 384-well Perkin Elmer ProxiPlate 384 plus plates. 8 uL of solutions containing 30 nM EED (1-441)-His protein and 15 nM biotin-H3K27Me3 (19-33) peptide in the buffer (25 mM HEPES, pH 8, 0.02% Tween-20, 0.5% BSA) were added to the wells and then incubated with compound for 20 min. AlphaScreen detection beads mix was prepared immediately before use by mixing nickel chelate acceptor beads and streptavidin donor beads in a 1:1 ratio (Perkin Elmer, Product No. 6760619C/M/R) into the buffer described above. Then 4 μL of detection beads mix was added to the plate and incubate in the dark at the rt for 1 h. The final concentration of donor and acceptor beads was 10 μg/mL for each. Plates were read on EnVision (PerkinElmer) using the AlphaScreen setting adapted for optimal signal detection with a 615 nm filter, after sample excitation at 680 nm. The emission signal at 615 nm was used to quantify compounds inhibition. AlphaScreen signals were normalized based on the reading coming from the positive (maximum signal control) and negative controls (minimum signal control) to give percentage of activities left. The data were then fit to a dose response equation using the program Helios (Novartis) to get the IC50 values. Helios is a Novartis in-house assay data analysis software using the methods described by Normolle, D. P., Statistics in Medicine, 12:2025-2042 (1993); Formenko, I. et al, Computer Methods and Programs in Biomedicine, 82, 31-37 (2006); Sebaugh, J. L., Pharmaceutical Statistics, 10:128-134 (2011); Kelly, C. et al., Biometrics, 46(4):1071-1085 (1990); and Kahm, M. et al., Journal of Statistical Software, 33 (7): (2010) (grofit: Fitting Biological Growth Curves with R, pages 1-21, available at http://www.jstatsoft.org/).
On the technique in general: Bead proximity is the source of the signal in Alpha formats.

A word on the IC50: it is the midpoint of a concentration-inhibition curve.

T1 sequence (O75530 whole entry): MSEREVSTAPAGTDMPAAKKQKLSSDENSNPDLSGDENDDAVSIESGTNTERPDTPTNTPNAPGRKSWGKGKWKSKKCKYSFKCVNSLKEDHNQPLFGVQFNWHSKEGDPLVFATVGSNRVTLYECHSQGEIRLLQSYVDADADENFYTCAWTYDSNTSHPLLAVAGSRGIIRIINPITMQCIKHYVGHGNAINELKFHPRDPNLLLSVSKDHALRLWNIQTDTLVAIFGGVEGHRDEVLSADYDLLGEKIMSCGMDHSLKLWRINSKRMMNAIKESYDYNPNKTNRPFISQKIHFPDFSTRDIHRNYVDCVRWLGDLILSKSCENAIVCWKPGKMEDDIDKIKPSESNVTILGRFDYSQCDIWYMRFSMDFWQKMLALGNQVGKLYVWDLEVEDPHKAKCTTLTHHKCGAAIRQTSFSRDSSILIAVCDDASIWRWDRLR

On to `COc1ccc(F)cc1CNc1ccc(-c2ccc(S(C)(=O)=O)cc2)c2nncn12` [Example 116, N-(5-fluoro-2-methoxybenzyl)-8-(4-(methylsulfonyl)phenyl)-[1,2,4]triazolo[4,3-a]pyridin-5-amine], for which the IC50 in assay [1] is 748 nM; at EED (1-441)-His protein, 276 nM.

Turning to `COc1ccc(F)cc1CNc1ccc(-c2ccncc2)c2nncn12` [Example 117, N-(5-fluoro-2-methoxybenzyl)-8-(pyridin-4-yl)-[1,2,4]triazolo[4,3-a]pyridin-5-amine], the IC50 is 895 nM in assay [1] and 846 nM at EED (1-441)-His protein.

Take `COc1ccc(F)cc1CNc1ccc(-c2cccnc2)c2nncn12` [Example 118, N-(5-fluoro-2-methoxybenzyl)-8-(pyridin-3-yl)-[1,2,4]triazolo[4,3-a]pyridin-5-amine]: the IC50 in assay [1] is 1270 nM; on EED (1-441)-His protein, 1260 nM.

Regarding `COc1c(F)cccc1CNc1ccc(-c2ccc(S(C)(=O)=O)cc2)c2nncn12` [Example 119, N-(3-fluoro-2-methoxybenzyl)-8-(4-(methylsulfonyl)phenyl)-[1,2,4]triazolo[4,3-a]pyridin-5-amine], the IC50 in assay [1] is 5140 nM; on EED (1-441)-His protein, 677 nM.

For `COc1ccc(F)c(CNc2ccc(-c3ccc(S(C)(=O)=O)cc3)c3nncn23)c1` [Example 120, N-(2-fluoro-5-methoxybenzyl)-8-(4-(methylsulfonyl)phenyl)-[1,2,4]triazolo[4,3-a]pyridin-5-amine], the figures for the IC50 (in assay [1]; on EED (1-441)-His protein) were 190 nM and 244 nM, respectively.

With `COc1ccc(F)c(CNc2ccc(-c3cccnc3)c3nncn23)c1` [Example 121, N-(2-fluoro-5-methoxybenzyl)-8-(pyridin-3-yl)-[1,2,4]triazolo[4,3-a]pyridin-5-amine], the figures for the 50% inhibitory concentration (IC50) (in assay [1]; at EED (1-441)-His protein) were 299 nM and 680 nM, respectively.

`COc1ccc(F)c(CNc2ccc(-c3ccc(S(C)(=O)=O)nc3)c3nncn23)c1` [Example 122, N-(2-fluoro-5-methoxybenzyl)-8-(6-(methylsulfonyl)pyridin-3-yl)-[1,2,4]triazolo[4,3-a] pyridin-5-amine]: the half-inhibitory concentration (IC50) in assay [1] was 138 nM; at EED (1-441)-His protein, 313 nM.

Turning to `COc1cccc(F)c1CNc1ccc(-c2cnn(C)c2)c2nncn12` [Example 125, N-(2-fluoro-6-methoxybenzyl)-8-(1-methyl-1H-pyrazol-4-yl)-[1,2,4] triazolo[4,3-a]pyridin-5-amine], the results for the concentration for half-maximal inhibition (IC50) (in assay [1]; on EED (1-441)-His protein) were 173 nM and 153 nM, respectively.

On to `COc1cc(F)ccc1CNc1ccc(-c2ccc(NS(C)(=O)=O)c(F)c2)c2nncn12` [Example 129, N-(2-fluoro-4-(5-((4-fluoro-2-methoxybenzyl)amino)-[1,2,4]triazolo[4,3-a]pyridin-8-yl)phenyl)methane sulfonamide], for which the half-inhibitory concentration (IC50) in assay [1] was 854 nM; on EED (1-441)-His protein it was 381 nM.

Turning to `COc1cc(F)ccc1CNc1ccc(-c2ccc(S(C)(=O)=O)nc2)c2nncn12` [Example 134, N-(4-fluoro-2-methoxybenzyl)-8-(6-(methylsulfonyl)pyridin-3-yl)-[1,2,4]triazolo[4,3-a] pyridin-5-amine], the IC50 in assay [1] is 538 nM; at EED (1-441)-His protein, 177 nM.

`COc1ccc(F)cc1CNc1ccc(-c2ccc(S(=O)(=O)C3CCN(C)CC3)cc2)c2nncn12` [Example 135, N-(5-fluoro-2-methoxybenzyl)-8-(4-((1-methylpiperidin-4-yl)sulfonyl)phenyl)-[1,2,4]triazolo[4,3-a] pyridin-5-amine]: the half-inhibitory concentration (IC50) is 279 nM in assay [1] and 444 nM on EED (1-441)-His protein.

Take `COc1c(F)cccc1CNc1ccc(-c2ccc(S(C)(=O)=O)nc2)c2nncn12` [Example 136, N-(3-fluoro-2-methoxybenzyl)-8-(6-(methylsulfonyl)pyridin-3-yl)-[1,2,4]triazolo[4,3-a] pyridin-5-amine]: the IC50 in assay [1] is 11400 nM; on EED (1-441)-His protein, 2880 nM.

For the compound `COc1c(F)cccc1CNc1ccc(-c2ccncc2)c2nncn12` [Example 137, N-(3-fluoro-2-methoxybenzyl)-8-(pyridin-4-yl)-[1,2,4]triazolo[4,3-a]pyridin-5-amine], the concentration for half-maximal inhibition (IC50) in assay [1] was 733 nM; on EED (1-441)-His protein it was 344 nM.

In the case of `COc1c(F)cccc1CNc1ccc(-c2ccc(S(=O)(=O)C3CCN(C)CC3)cc2)c2nncn12` [Example 138, N-(3-fluoro-2-methoxybenzyl)-8-(4-((1-methylpiperidin-4-yl)sulfonyl)phenyl)-[1,2,4] triazolo[4,3-a]pyridin-5-amine], the IC50 in assay [1] was found to be 2900 nM; on EED (1-441)-His protein, 1270 nM.

`COc1cccc(F)c1CNc1ccc(-c2cnc(N(C)C)nc2)c2nncn12` [Example 141, 8-(2-(dimethylamino)pyrimidin-5-yl)-N-(2-fluoro-6-methoxybenzyl)-[1,2,4] triazolo[4,3-a]pyridin-5-amine]: the half-inhibitory concentration (IC50) was 761 nM in assay [1] and 118 nM at EED (1-441)-His protein.

Turning to `COc1c(F)cccc1CNc1ccc(-c2cccnc2)c2nncn12` [Example 144, N-(3-fluoro-2-methoxybenzyl)-8-(pyridin-3-yl)-[1,2,4]triazolo[4,3-a]pyridin-5-amine], the IC50 in assay [1] worked out at 986 nM; at EED (1-441)-His protein, 1270 nM.

Consider `COc1cccc(F)c1CNc1ccc(-c2cnn(CCO)c2)c2nncn12` [Example 145, 2-(4-(5-((2-fluoro-6-methoxybenzyl)amino)-[1,2,4]triazolo[4,3-a]pyridin-8-yl)-1H-pyrazol-1-yl)ethanol], for which the concentration for half-maximal inhibition (IC50) in assay [1] stood at 118 nM; on EED (1-441)-His protein, 125 nM.

In the case of `COc1c(F)cc(F)cc1CNc1ccc(-c2ccc(CN(C)C)cc2)c2nncn12` [Example 146, N-(3,5-difluoro-2-methoxybenzyl)-8-(4-((dimethylamino)methyl)phenyl)-[1,2,4]triazolo[4,3-a] pyridin-5-amine], the concentration for half-maximal inhibition (IC50) was 4110 nM in assay [1] and 1980 nM on EED (1-441)-His protein.

As for `COc1cc(F)ccc1CNc1ccc(-c2ccc(S(=O)(=O)C3CCN(C)CC3)cc2)c2nncn12` [Example 153, N-(4-fluoro-2-methoxybenzyl)-8-(4-((1-methylpiperidin-4-yl)sulfonyl)phenyl)-[1,2,4]triazolo[4,3-a] pyridin-5-amine], the half-inhibitory concentration (IC50) was determined as 223 nM in assay [1] and 168 nM at EED (1-441)-His protein.
